Assay: excess molar enthalpy (molar enthalpy of mixing); xn = mol fraction of the nth substance listed
Settings: 101.3 kPa, Liquid, Isothermal microcalorimeter

CCOC(=O)CC(=O)OCC [diethyl 1,3-propanedioate] + CCCCCO
excess molar enthalpy [kcal/mol]
Settings	288.15 K	298.15 K	313.15 K	328.15 K	338.15 K	348.15 K
x1 = 0.0494	–	0.146	–	–	–	–
x1 = 0.0583	0.153	–	0.179	0.171	0.185	0.195
x1 = 0.1007	0.235	0.258	0.282	0.292	0.294	0.301
x1 = 0.1478	0.31	0.338	0.387	0.391	0.3934	0.3987
x1 = 0.2	0.3731	0.4132	0.4584	0.4859	0.4897	0.49
x1 = 0.2474	0.4204	0.4646	0.5196	0.5471	0.5504	0.5566
x1 = 0.3001	0.4622	0.5153	0.5793	0.6047	0.6154	0.6068
x1 = 0.3474	0.4885	0.5428	0.6142	0.6424	0.6482	0.6441
x1 = 0.4003	0.512	0.5712	0.6389	0.6666	0.6707	0.6764
x1 = 0.4472	0.5203	0.5844	0.6465	0.6793	0.68	0.6816
x1 = 0.4997	0.5284	0.5896	0.6467	0.6819	0.6826	0.6781
x1 = 0.55	0.528	0.5815	0.6405	0.669	0.6692	0.6656
x1 = 0.5975	0.516	0.5674	0.6209	0.6456	0.6439	0.6405
x1 = 0.6466	0.4945	0.543	0.5906	0.6121	0.5973	0.5992
x1 = 0.6973	0.4653	0.5067	0.5447	0.5609	0.5569	0.5497
x1 = 0.7497	0.4199	0.4572	0.4857	0.4974	0.4919	0.4826
x1 = 0.7988	0.3709	0.3982	0.4185	0.4235	0.4218	0.407
x1 = 0.8494	0.3	0.3198	0.332	0.334	0.331	0.315
x1 = 0.9017	0.212	0.223	0.226	0.232	0.224	0.217
x1 = 0.9501	0.11	0.12	0.121	0.121	0.114	0.109

CCOC(=O)CC(=O)OCC [diethyl 1,3-propanedioate] + CCCCO
excess molar enthalpy [kcal/mol]
Settings	288.15 K	298.15 K	313.15 K	328.15 K	338.15 K	348.15 K
x1 = 0.0498	0.123	0.133	0.146	0.153	0.156	0.152
x1 = 0.1085	0.239	0.254	0.285	–	0.308	0.308
x1 = 0.1482	0.2978	0.3164	0.354	0.3676	0.3853	0.3956
x1 = 0.1991	0.3619	0.3858	0.4369	0.4627	0.472	0.4723
x1 = 0.2499	0.4099	0.4383	0.4947	0.5249	0.533	0.5418
x1 = 0.3003	0.4496	0.4828	0.544	0.576	0.587	0.5882
x1 = 0.3501	0.4754	0.5177	0.5789	0.6128	0.6219	0.6252
x1 = 0.3988	0.4967	0.5378	0.6006	0.6315	0.6429	0.6482
x1 = 0.4501	0.5096	0.5507	0.6128	0.6424	0.6539	0.6511
x1 = 0.5	0.5134	0.5557	0.6104	0.6415	0.6513	0.6487
x1 = 0.548	0.51	0.5511	0.6028	0.6322	0.6379	0.6322
x1 = 0.5984	0.5005	0.5337	0.582	0.6047	0.6121	0.6119
x1 = 0.6512	0.4742	0.5086	0.5495	0.5705	0.575	0.5693
x1 = 0.6965	0.4498	0.4763	0.51	0.5256	0.5313	0.5239
x1 = 0.749	0.4037	0.4264	0.4598	0.4627	0.4625	0.457
x1 = 0.7985	0.3516	0.3683	0.3896	0.397	0.3963	0.3922
x1 = 0.8502	0.282	0.2949	0.3109	0.3107	0.3162	0.306
x1 = 0.8981	0.203	0.213	0.226	0.216	0.232	0.224
x1 = 0.948	0.109	0.114	0.123	0.111	0.127	0.122

CCOC(=O)CC(=O)OCC [diethyl 1,3-propanedioate] + CCOC(C)=O
excess molar enthalpy [kcal/mol]
Settings	288.19 K	298.15 K	313.15 K	328.15 K	338.15 K	348.15 K
x1 = 0.0504	-0.000239	-0.000478	-0.000956	-0.00143	-0.00167	-0.00239
x1 = 0.1008	-0.000239	-0.000717	-0.00143	-0.00239	-0.00335	-0.00406
x1 = 0.148	-0.000478	-0.000956	-0.00191	-0.00335	-0.0043	-0.0055
x1 = 0.2007	-0.000478	-0.0012	-0.00239	-0.00406	-0.00526	-0.00645
x1 = 0.2496	-0.000478	-0.00143	-0.00263	-0.00454	-0.00598	-0.00741
x1 = 0.2974	-0.000478	-0.00143	-0.00287	-0.00478	-0.00621	-0.00789
x1 = 0.3475	-0.000478	-0.00143	-0.00287	-0.00502	-0.00669	-0.00813
x1 = 0.4	-0.000478	-0.00143	-0.00287	-0.00502	-0.00669	-0.00837
x1 = 0.447	-0.000478	-0.00143	-0.00287	-0.00502	-0.00669	-0.00813
x1 = 0.5003	-0.000478	-0.0012	-0.00287	-0.00478	-0.00645	-0.00789
x1 = 0.5474	-0.000478	-0.0012	-0.00263	-0.00454	-0.00621	-0.00765
x1 = 0.601	-0.000239	-0.000956	-0.00239	-0.0043	-0.00574	-0.00717
x1 = 0.6476	-0.000239	-0.000956	-0.00215	-0.00406	-0.00526	-0.00645
x1 = 0.7009	-0.000239	-0.000717	-0.00191	-0.00359	-0.00454	-0.00574
x1 = 0.7514	0	-0.000717	-0.00167	-0.00311	-0.00406	-0.00502
x1 = 0.7986	0	-0.000478	-0.00143	-0.00239	-0.00335	-0.00406
x1 = 0.8476	0	-0.000239	-0.000956	-0.00191	-0.00239	-0.00311
x1 = 0.8985	0	0	-0.000717	-0.00143	-0.00167	-0.00215
x1 = 0.9513	0.000239	0.000239	-0.000239	-0.000717	-0.000717	-0.000956

Reference: the NIST ThermoML archive (doi:10.1016/j.fluid.2009.11.030)
